Source: patent US8372823B2, “Tetracyclic inhibitors of fatty acid amide hydrolase” (The Scripps Research Institute, priority 2007, dated 2013)
Each block holds one compound with its values, some of them ahead of it.

Legend:
[1] = CREAE mice, model of multiple sclerosis; cited from earlier work
[2] = rats; cited from earlier work
[3] = rats; cited from earlier work; remark: listed apart in the source
[4] = target: T1, FAAH (Homo sapiens, UniProt O00519); assay: FAAH enzyme assay, Ki (Dixon plot), human FAAH; assay type: biochemical; design: expressed in transfected cells; host or cells: COS-7 (transient transfection), solubilized membrane extracts; details: solubilized COS-7 membrane extracts, human FAAH cDNA; 14C-oleamide hydrolysis; pH 9.0; 20-23° C.
T1 sequence (O00519 1-579): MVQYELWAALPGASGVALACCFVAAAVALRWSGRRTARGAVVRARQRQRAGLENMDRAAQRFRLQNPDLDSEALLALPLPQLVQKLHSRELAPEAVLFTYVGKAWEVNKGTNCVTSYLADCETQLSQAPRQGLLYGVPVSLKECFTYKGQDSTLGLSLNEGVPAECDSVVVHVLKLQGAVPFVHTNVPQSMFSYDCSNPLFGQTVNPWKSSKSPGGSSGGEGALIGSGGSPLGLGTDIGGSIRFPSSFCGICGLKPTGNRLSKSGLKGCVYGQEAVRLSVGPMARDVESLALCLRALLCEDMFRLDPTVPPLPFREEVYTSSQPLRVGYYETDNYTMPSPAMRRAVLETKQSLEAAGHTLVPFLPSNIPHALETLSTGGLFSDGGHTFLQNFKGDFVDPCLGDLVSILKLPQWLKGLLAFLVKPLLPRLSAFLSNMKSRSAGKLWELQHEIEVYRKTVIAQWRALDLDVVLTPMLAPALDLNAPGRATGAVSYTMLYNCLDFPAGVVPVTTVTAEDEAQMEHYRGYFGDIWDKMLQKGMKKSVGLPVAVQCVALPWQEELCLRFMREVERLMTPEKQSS

[5] = target: T2, purified recombinant rat FAAH (Rattus norvegicus, UniProt P97612); assay: FAAH enzyme assay, Ki (Dixon plot), rat FAAH; assay type: biochemical; details: purified recombinant rat FAAH expressed in E. coli; 14C-oleamide hydrolysis; pH 9.0; 20-23° C.
T2 construct: made in house; host or cells: E. coli
T2 sequence (P97612 1-579): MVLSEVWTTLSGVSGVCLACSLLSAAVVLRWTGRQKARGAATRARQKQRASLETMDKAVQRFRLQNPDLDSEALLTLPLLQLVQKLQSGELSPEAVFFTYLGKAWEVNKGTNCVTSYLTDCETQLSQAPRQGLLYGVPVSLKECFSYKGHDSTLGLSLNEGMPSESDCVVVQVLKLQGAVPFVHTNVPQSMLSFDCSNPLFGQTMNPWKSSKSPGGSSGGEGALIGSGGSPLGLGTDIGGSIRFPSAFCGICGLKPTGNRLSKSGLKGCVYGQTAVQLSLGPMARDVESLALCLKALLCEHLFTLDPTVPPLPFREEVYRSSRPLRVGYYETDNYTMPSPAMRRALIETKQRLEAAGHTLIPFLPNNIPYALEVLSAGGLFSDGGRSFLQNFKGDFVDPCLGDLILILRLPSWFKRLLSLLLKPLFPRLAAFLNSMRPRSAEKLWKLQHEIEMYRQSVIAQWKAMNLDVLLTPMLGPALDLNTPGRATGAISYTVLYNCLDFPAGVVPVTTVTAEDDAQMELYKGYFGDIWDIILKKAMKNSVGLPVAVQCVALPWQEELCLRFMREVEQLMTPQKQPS

[6] = target: T3, rat FAAH (Rattus norvegicus, UniProt P97612); assay: FAAH inhibition IC50, rat; assay type: biochemical; details: inhibition at 3-5 test compound concentrations
T3 construct: made in house; host or cells: E. coli
T3 sequence (P97612 1-579): T2 sequence (P97612 1-579)
Protocol: (§1) Enzyme assays were performed at 20-23° C. with purified recombinant rat FAAH expressed in E. coli (Patricelli, M. P.; Lashuel, H. A.; et al. Biochemistry 1998, 37, 15177-15187) (unless indicated otherwise) or with solubilized COS-7 membrane extracts from cells transiently transfected with human FAAH cDNA (Giang, D. K.; Cravatt, B. F. Proc. Natl. Acad. Sci. U.S.A. 1997, 94, 2238-2242) (where specifically indicated) in a buffer of 125 mM Tris/1 mM EDTA/0.2% glycerol/0.02% Triton X-100/0.4 mM Hepes, pH 9.0 buffer (Patricelli, M. P.; Patterson, J. P.; et al. Bioorg. Med. Chem. Lett. 1998, 8, 613-618). […] NT=no data available.
(§2) IC50 values were determined from the inhibition observed at 3-5 different test compound concentrations (from three or more trials at each concentration) using the formula IC50=[I]/[K0/Ki)-1], where K0 is the control reaction rate without inhibitor and Ki is the rate with test compound at concentration [I] (Conde-Frieboes, K. et al. J. Am. Chem. Soc. 1996, 118, 5519-5525). NT=no data available.

[7] = target: T1, FAAH; assay: FAAH inhibition IC50, human; assay type: biochemical; design: expressed in transfected cells; host or cells: COS-7 (transient transfection), solubilized membrane extracts; details: inhibition at 3-5 test compound concentrations
Protocol: as §1, §2

[8] = rat; cited from earlier work
[9] = target: T1, FAAH; details: cited from earlier work
[10] = rats; cited from earlier work; remark: listed apart in the source
[11] = rats; cited from earlier work; remark: listed apart in the source
[12] = rat; cited from earlier work; remark: listed apart in the source

Compound: CCCCCCCCCCCCCCCCS(=O)(=O)F [AM374]
reduction of spasticity [1]: significantly reduce spasticity

Compound: Cc1nc(-c2ccccc2)c(-c2ccccc2)n1CCCCCCNC(=O)Oc1ccccc1F [BMS-1]
analgesic effect in Hargraves test of acute thermal nociception [2]: analgesic effect
analgesic effect in Chung spinal nerve ligation model [3]: analgesic effect

Ki [4]: 0.45 nM
Ki [5]: 1.3 nM
melting point: 99 to 100 °C
Compound: O=C(CCc1ccc(OCc2ccccc2)cc1)c1ncc(-c2ccccn2)o1 [Example 11a, 1-Oxo-1-[5-(2-pyridyl)oxazol-2-yl]-3-(4-(benzyloxy)phenyl)propane]

Ki [4]: 5 nM
Ki [5]: 1 nM
Compound: O=C(CCc1ccc(COc2ccccc2)cc1)c1ncc(-c2ccccn2)o1 [Example 11e, 3-(4-(Phenoxymethyl)phenyl)-1-(5-(pyridin-2-yl)oxazol-2-yl)propan-1-one]

Ki [4]: 0.6 nM
Ki [5]: 0.38 nM
Compound: O=C(CCc1ccc(OCc2ccccc2)cc1)c1nc2ncccc2o1 [Example 11k, 3-(4-(Benzyloxy)phenyl)-1-(oxazolo[4,5-b]pyridin-2-yl)propan-1-one]

Ki [4]: 1.2 nM
Ki [5]: 1.2 nM
IC50 [6]: 0.5 nM
IC50 [7]: 3 nM
Compound: COC(=O)c1cccc(-c2cnc(C(=O)CCc3ccc(-c4ccccc4)cc3)o2)n1 [Example 21, 6-[2-(3-Biphenyl-4-yl-propionyl)-oxazol-5-yl]-pyridine-2-carboxylic acid methyl ester]

Ki [5]: 27 nM
IC50 [6]: 9 nM
IC50 [7]: 83 nM
Compound: O=C(CCc1ccc(-c2ccccc2)cc1)c1ncc(-c2cccc(-c3nnn[nH]3)n2)o1 [Example 46, 3-Biphenyl-4-yl-1-{5-[6-(1H-tetrazol-5-yl)-pyridin-2-yl]-oxazol-2-yl}-propan-1-one]

Compound: O=C(CCCCCCc1ccccc1)c1ncc(-c2ccccn2)o1 [OL-135]
analgesic activity in hot plate test [8]: analgesic activity
inhibition of FAAH [9]: potent inhibitor
analgesic activity in tail emersion test [10]: analgesic activity

Compound: NC(=O)c1cccc(-c2cccc(OC(=O)NC3CCCCC3)c2)c1 [URB-597]
analgesic activity in hot plate test [8]: analgesic efficacy
efficacy in zero plus maze model of anxiety [11]: efficacy
analgesic efficacy in formalin test [12]: analgesic efficacy
